Assays:
[1] = test system: secreted IL-17 in peripheral blood mononuclear cells (PBMCs); test: Human IL-17 inhibition assay; format: cell-based; settings: PBMC, anti-CD3/anti-CD28, 72 h, read-out: IL17 IC50
Experimental: Peripheral blood mononuclear cells (PBMCs) were isolated from healthy volunteers and subjected to T cell polarization assay. Two million PBMCs were placed on anti-CD3 (Biolegend, US) coated 96-well plates and 1 μg/mL of anti-CD28 (Biolegend, US) was added along with RORγt inhibitors or the vehicle control and incubated at 37° C. and 5% CO2 for 72 h. At the end of incubation time, the supernatant was collected and analyzed for secreted IL-17 using sandwich enzyme immunoassay (Mabtech AB, Sweden). The results were analyzed using Graphpad Prism and the half-maximal inhibitory concentrations (IC50) of the test compounds were derived (Table 4).

[2] = molecular target: T1, full length human RORγt (Homo sapiens, UniProt P51449); test: 5×RORE based luciferase assay; format: cell-based; settings: COS-7 cells transfected with 5×RORE-Luc and hRORγt, 18-20 h treatment
T1 construct: full length human RORγt together in COS-7 cells; expressed in transfected cells; host or cells: COS-7
T1 sequence (P51449 1-497 isoform P51449-2): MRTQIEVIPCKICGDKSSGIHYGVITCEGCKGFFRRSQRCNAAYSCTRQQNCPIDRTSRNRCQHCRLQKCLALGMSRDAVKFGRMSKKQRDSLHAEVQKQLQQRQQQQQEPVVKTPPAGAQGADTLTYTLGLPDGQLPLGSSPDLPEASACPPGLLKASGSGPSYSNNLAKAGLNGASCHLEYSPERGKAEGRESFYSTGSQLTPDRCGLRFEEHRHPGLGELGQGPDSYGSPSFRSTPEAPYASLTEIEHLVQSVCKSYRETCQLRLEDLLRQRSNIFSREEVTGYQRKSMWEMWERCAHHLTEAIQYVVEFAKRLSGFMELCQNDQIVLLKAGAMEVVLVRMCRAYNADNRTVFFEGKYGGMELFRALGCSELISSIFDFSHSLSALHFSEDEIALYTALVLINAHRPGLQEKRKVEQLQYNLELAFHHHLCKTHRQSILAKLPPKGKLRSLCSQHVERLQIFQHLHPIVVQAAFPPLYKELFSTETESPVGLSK
Experimental: Human RORγt (hRORγt) inhibitors were screened in RORE (RORγt Response Element) based Luciferase assay by transient transfection of 5×RORE (5 tandem repeats of RORγt Response Element) and full length human RORγt together in COS-7 cells. COS-7 cells were maintained as monolayer in complete DMEM (High Glucose) medium in presence of 2 mM Glutamin and 1× Sodium Pyruvate. Day before transfection, 15000 cells were seeded in 96 well cell culture plate in 100 μl antibiotic free medium and incubated at 37° C. in 5% CO2 containing humidified chamber O/N. Prior to transfection, cells were fed with fresh complete growth medium and incubated until the addition of transfection complex. Transfection complex for the required numbers of wells were prepared from pGL2-promoter-5×RORE-Luc plasmid, pcDNA3.1 (+)-hRORγt expression plasmid, pβ-GAL plasmid (transfection control), and Lipofectamine 3000 (Invitrogen). 50 μl of transfection complex were added in 100 μl of complete medium to respective wells, mixed gently and plate was incubated for 5-6 h at 37° C. in 5% CO2 containing humidified chamber. After 5 h of transfection, content of the wells were aspirated and cells were treated with increasing concentration of RORγt inverse agonist in medium devoid of serum with a final DMSO concentration of 0.2% for 18-20 h at 37° C. in 5% CO2 containing humidified chamber. Next day, cells were lysed and the lysates were assayed for luciferase and β-GAL activity using Promega's luciferase assay system and an in-house made β-GAL assay buffer respectively. Luciferase signals were normalized with β-GAL and % activity was determined with respect to that of 10 nM control ligand.
IC50 of selected compounds were then determined by nonlinear regression analysis of % activity, plotted against compound concentration (Table 4).

Row | IC50 [2] | Compound | IC50 [1]
1 |  | CCS(=O)(=O)c1ccc(CC(=O)Nc2cc(Cl)c(C3(c4noc(-c5ccc(F)cc5)n4)CC3)c(Cl)c2)cc1 [Example 1, N-(3,5-dichloro-4-(1-(5-(4-fluorophenyl)-1,2,4-oxadiazol-3-yl)cyclopropyl)phenyl)-2-(4-(ethylsulfonyl)phenyl)acetamide] | 6.6 nM
2 | 7 nM | CCS(=O)(=O)c1ccc(CC(=O)Nc2cc(Cl)c(C3(c4noc(-c5ccccc5)n4)CC3)c(Cl)c2)cc1 [Example 2, N-(3,5-dichloro-4-(1-(5-phenyl-1,2,4-oxadiazol-3-yl)cyclopropyl)phenyl)-2-(4-(ethylsulfonyl)phenyl)acetamide] | 25 nM
3 | 8.5 nM | CCS(=O)(=O)c1ccc(CC(=O)Nc2cc(Cl)c(C3(c4noc(-c5ccc(C(F)(F)F)cc5)n4)CC3)c(Cl)c2)cc1 [Example 3, N-(3,5-dichloro-4-(1-(5-(4-(trifluoromethyl)phenyl)-1,2,4-oxadiazol-3-yl)cyclopropyl)phenyl)-2-(4-(ethylsulfonyl)phenyl)acetamide] | 38.3 nM
4 | 1.46 nM | CCS(=O)(=O)c1ccc(CC(=O)Nc2cc(Cl)c(C3(c4noc(-c5ccc(C)cc5)n4)CC3)c(Cl)c2)cc1 [Example 4, N-(3,5-dichloro-4-(1-(5-(p-tolyl)-1,2,4-oxadiazol-3-yl)cyclopropyl)phenyl)-2-(4-(ethylsulfonyl)phenyl)acetamide] | 15 nM
5 | 5.6 nM | CCS(=O)(=O)c1ccc(CC(=O)Nc2cc(Cl)c(C3(c4noc(-c5ccc(F)c(F)c5)n4)CC3)c(Cl)c2)cc1 [Example 5, N-(3,5-dichloro-4-(1-(5-(3,4-difluorophenyl)-1,2,4-oxadiazol-3-yl)cyclopropyl)phenyl)-2-(4-(ethylsulfonyl)phenyl)acetamide] | 17 nM
6 | 3.4 nM | CCS(=O)(=O)c1ccc(CC(=O)Nc2cc(Cl)c(C3(c4noc(-c5cccc(F)c5)n4)CC3)c(Cl)c2)cc1 [Example 6, N-(3,5-dichloro-4-(1-(5-(3-fluorophenyl)-1,2,4-oxadiazol-3-yl)cyclopropyl)phenyl)-2-(4-(ethylsulfonyl)phenyl)acetamide] | 35 nM
7 | 8.7 nM | CCS(=O)(=O)c1ccc(CC(=O)Nc2cc(Cl)c(C3(c4noc(-c5ccc(F)cc5F)n4)CC3)c(Cl)c2)cc1 [Example 7, N-(3,5-dichloro-4-(1-(5-(2,4-difluorophenyl)-1,2,4-oxadiazol-3-yl)cyclopropyl)phenyl)-2-(4-(ethylsulfonyl)phenyl)acetamide] | 10.4 nM
8 | 11 nM | CCS(=O)(=O)c1ccc(CC(=O)Nc2cc(Cl)c(C3(c4noc(-c5c(F)cc(F)cc5F)n4)CC3)c(Cl)c2)cc1 [Example 8, N-(3,5-dichloro-4-(1-(5-(2,4,6-trifluorophenyl)-1,2,4-oxadiazol-3-yl)cyclopropyl)phenyl)-2-(4-(ethylsulfonyl)phenyl)acetamide] | 2.7 nM
9 | 8.9 nM | CCS(=O)(=O)c1ccc(CC(=O)Nc2cc(Cl)c(C3(c4noc(-c5ccc(F)cc5Cl)n4)CC3)c(Cl)c2)cc1 [Example 9, N-(3,5-dichloro-4-(1-(5-(2-chloro-4-fluorophenyl)-1,2,4-oxadiazol-3-yl)cyclopropyl)phenyl)-2-(4-(ethylsulfonyl)phenyl)acetamide] | 9.2 nM
10 | 6.8 nM | CCS(=O)(=O)c1ccc(CC(=O)Nc2cc(Cl)c(C3(c4noc(-c5ccc(F)c(Cl)c5)n4)CC3)c(Cl)c2)cc1 [Example 10, N-(3,5-dichloro-4-(1-(5-(3-chloro-4-fluorophenyl)-1,2,4-oxadiazol-3-yl)cyclopropyl)phenyl)-2-(4-(ethylsulfonyl)phenyl)acetamide] | 9.4 nM
11 | 15.9 nM | CCS(=O)(=O)c1ccc(CC(=O)Nc2cc(Cl)c(C3(c4noc(-c5ccc(Cl)c(Cl)c5)n4)CC3)c(Cl)c2)cc1 [Example 11, N-(3,5-dichloro-4-(1-(5-(3,4-dichlorophenyl)-1,2,4-oxadiazol-3-yl)cyclopropyl)phenyl)-2-(4-(ethylsulfonyl)phenyl)acetamide] | 14.7 nM
12 | 5.9 nM | CCS(=O)(=O)c1ccc(CC(=O)Nc2cc(Cl)c(C3(c4noc(-c5ccc(Cl)cc5Cl)n4)CC3)c(Cl)c2)cc1 [Example 12, N-(3,5-dichloro-4-(1-(5-(2,4-dichlorophenyl)-1,2,4-oxadiazol-3-yl)cyclopropyl)phenyl)-2-(4-(ethylsulfonyl)phenyl)acetamide] | 10.6 nM
13 | 8.9 nM | CCS(=O)(=O)c1ccc(CC(=O)Nc2cc(Cl)c(C3(c4noc(-c5ccc(Cl)cc5)n4)CC3)c(Cl)c2)cc1 [Example 13, N-(3,5-dichloro-4-(1-(5-(4-chlorophenyl)-1,2,4-oxadiazol-3-yl)cyclopropyl)phenyl)-2-(4-(ethylsulfonyl)phenyl)acetamide] | 27.2 nM
14 | 1.3 nM | CCS(=O)(=O)c1ccc(CC(=O)Nc2cc(Cl)c(C3(c4noc(-c5ccc(C#N)cc5)n4)CC3)c(Cl)c2)cc1 [Example 14, N-(3,5-dichloro-4-(1-(5-(4-cyanophenyl)-1,2,4-oxadiazol-3-yl)cyclopropyl)phenyl)-2-(4-(ethylsulfonyl)phenyl)acetamide] | 9.5 nM
15 | 5.7 nM | CCS(=O)(=O)c1ccc(CC(=O)Nc2cc(Cl)c(C3(c4noc(-c5ccc(OC)cc5F)n4)CC3)c(Cl)c2)cc1 [Example 15, N-(3,5-dichloro-4-(1-(5-(2-fluoro-4-methoxyphenyl)-1,2,4-oxadiazol-3-yl)cyclopropyl)phenyl)-2-(4-(ethylsulfonyl)phenyl)acetamide] | 27 nM
16 | 0.9 nM | CCS(=O)(=O)c1ccc(CC(=O)Nc2cc(Cl)c(C3(c4noc(-c5cccs5)n4)CC3)c(Cl)c2)cc1 [Example 16, N-(3,5-dichloro-4-(1-(5-(thiophen-2-yl)-1,2,4-oxadiazol-3-yl)cyclopropyl)phenyl)-2-(4-(ethylsulfonyl)phenyl)acetamide] | 42 nM
17 | 1.9 nM | CCS(=O)(=O)c1ccc(CC(=O)Nc2cc(Cl)c(C3(c4noc(-c5ccc(Cl)s5)n4)CC3)c(Cl)c2)cc1 [Example 17, N-(3,5-dichloro-4-(1-(5-(5-chlorothiophen-2-yl)-1,2,4-oxadiazol-3-yl)cyclopropyl)phenyl)-2-(4-(ethylsulfonyl)phenyl)acetamide] | 6 nM
18 | 3.9 nM | CCS(=O)(=O)c1ccc(CC(=O)Nc2cc(Cl)c(C3(c4noc(-c5ccc(C)s5)n4)CC3)c(Cl)c2)cc1 [Example 18, N-(3,5-dichloro-4-(1-(5-(5-methylthiophen-2-yl)-1,2,4-oxadiazol-3-yl)cyclopropyl)phenyl)-2-(4-(ethylsulfonyl)phenyl)acetamide] | 23.7 nM
19 | 1.58 nM | CCS(=O)(=O)c1ccc(CC(=O)Nc2cc(Cl)c(C3(c4noc(-c5cccnc5)n4)CC3)c(Cl)c2)cc1 [Example 19, N-(3,5-dichloro-4-(1-(5-(pyridin-3-yl)-1,2,4-oxadiazol-3-yl)cyclopropyl)phenyl)-2-(4-(ethylsulfonyl)phenyl)acetamide] | 27 nM
20 | 15.8 nM | CCS(=O)(=O)c1ccc(CC(=O)Nc2cc(Cl)c(C3(c4noc(-c5ccc(OC)nc5)n4)CC3)c(Cl)c2)cc1 [Example 20, N-(3,5-dichloro-4-(1-(5-(6-methoxypyridin-3-yl)-1,2,4-oxadiazol-3-yl)cyclopropyl)phenyl)-2-(4-(ethylsulfonyl)phenyl)acetamide] | 11.3 nM
21 | 1.4 nM | CCS(=O)(=O)c1ccc(CC(=O)Nc2cc(Cl)c(C3(c4noc(C(C)C)n4)CC3)c(Cl)c2)cc1 [Example 23, N-(3,5-dichloro-4-(1-(5-isopropyl-1,2,4-oxadiazol-3-yl)cyclopropyl)phenyl)-2-(4-(ethylsulfonyl)phenyl)acetamide] | 21 nM

From patent publication US20190152962A1, “CYCLOPROPYL DERIVATIVES AS ROR-GAMMA MODULATORS” (CADILA HEALTHCARE LIMITED, priority 2016, published 2019)
